Data taken from PubChem BioAssay (NCI).
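Grown in 96-well plates, cells were treated for 48 hours with each compound at five concentrations. Insufficient inhibition: endpoint recorded as highest concentration tested. TGI marks complete inhibition of growth.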

Experiments:
Test in all cases: inhibition of tumour cell growth, NCI panel, 48 h
786-0 renal = tested on: 786-0 renal
A498 renal = tested on: A498 renal
A549 NSCLC = tested on: A549 NSCLC
ACHN renal = tested on: ACHN renal
BT-549 breast = tested on: BT-549 breast
CAKI-1 renal = tested on: CAKI-1 renal
CCRF-CEM leukemia = tested on: CCRF-CEM leukemia
COLO 205 colon = tested on: COLO 205 colon
DU-145 prostate = tested on: DU-145 prostate
EKVX NSCLC = tested on: EKVX NSCLC
HCC-2998 colon = tested on: HCC-2998 colon
HCT-116 colon = tested on: HCT-116 colon
HCT-15 colon = tested on: HCT-15 colon
HL-60(TB) leukemia = tested on: HL-60(TB) leukemia
HOP-62 NSCLC = tested on: HOP-62 NSCLC
HOP-92 NSCLC = tested on: HOP-92 NSCLC
HS 578T breast = tested on: HS 578T breast
HT29 colon = tested on: HT29 colon
IGROV1 ovarian = tested on: IGROV1 ovarian
K-562 leukemia = tested on: K-562 leukemia
KM12 colon = tested on: KM12 colon
LOX IMVI melanoma = tested on: LOX IMVI melanoma
MALME-3M melanoma = tested on: MALME-3M melanoma
MCF7 breast = tested on: MCF7 breast
MDA-MB-231 breast = tested on: MDA-MB-231 breast
MDA-MB-435 = tested on: MDA-MB-435
MDA-N = tested on: MDA-N
MOLT-4 leukemia = tested on: MOLT-4 leukemia
NCI-H226 lung = tested on: NCI-H226 lung
NCI-H23 lung = tested on: NCI-H23 lung
NCI-H460 lung = tested on: NCI-H460 lung
NCI-H522 lung = tested on: NCI-H522 lung
NCI/ADR-RES ovarian = tested on: NCI/ADR-RES ovarian
OVCAR-3 ovarian = tested on: OVCAR-3 ovarian
OVCAR-4 ovarian = tested on: OVCAR-4 ovarian
OVCAR-5 ovarian = tested on: OVCAR-5 ovarian
OVCAR-8 ovarian = tested on: OVCAR-8 ovarian
PC-3 prostate = tested on: PC-3 prostate
RPMI-8226 leukemia = tested on: RPMI-8226 leukemia
RXF 393 renal = tested on: RXF 393 renal
SF-268 CNS = tested on: SF-268 CNS
SF-295 CNS = tested on: SF-295 CNS
SF-539 CNS = tested on: SF-539 CNS
SK-MEL-2 melanoma = tested on: SK-MEL-2 melanoma
SK-MEL-28 melanoma = tested on: SK-MEL-28 melanoma
SK-MEL-5 melanoma = tested on: SK-MEL-5 melanoma
SK-OV-3 ovarian = tested on: SK-OV-3 ovarian
SN12C renal = tested on: SN12C renal
SNB-75 CNS = tested on: SNB-75 CNS
SR leukemia = tested on: SR leukemia
SW-620 colon = tested on: SW-620 colon
T-47D breast = tested on: T-47D breast
TK-10 renal = tested on: TK-10 renal
U251 CNS = tested on: U251 CNS
UACC-62 melanoma = tested on: UACC-62 melanoma
UO-31 renal = tested on: UO-31 renal
M14 melanoma = tested on: M14 melanoma
SNB-19 CNS = tested on: SNB-19 CNS
UACC-257 melanoma = tested on: UACC-257 melanoma

`COc1cccc2c(=O)oc(-c3ccccc3C)nc12` showed a TGI (786-0 renal) greater than 100 µM, a TGI (A498 renal) greater than 100 µM and a TGI (A549 NSCLC) greater than 100 µM. It also gave a TGI (ACHN renal) greater than 100 µM, a TGI (BT-549 breast) of 48.2 µM and a TGI (CAKI-1 renal) greater than 100 µM. The TGI (CCRF-CEM leukemia) was 73 µM, the TGI (COLO 205 colon) was greater than 100 µM and the TGI (DU-145 prostate) was greater than 100 µM. It also gave a TGI (EKVX NSCLC) greater than 100 µM, a TGI (HCC-2998 colon) greater than 100 µM and a TGI (HCT-116 colon) greater than 100 µM. For the same molecule, the TGI (HCT-15 colon) was greater than 100 µM, the TGI (HL-60(TB) leukemia) was greater than 100 µM and the TGI (HOP-62 NSCLC) was 76.3 µM. The TGI (HOP-92 NSCLC) was greater than 100 µM, the TGI (HS 578T breast) was greater than 100 µM and the TGI (HT29 colon) was greater than 100 µM. For the same molecule, the TGI (IGROV1 ovarian) was 96.8 µM, the TGI (K-562 leukemia) was greater than 100 µM and the TGI (KM12 colon) was greater than 100 µM. For the same molecule, the TGI (LOX IMVI melanoma) was 36.6 µM, the TGI (MALME-3M melanoma) was greater than 100 µM and the TGI (MCF7 breast) was greater than 100 µM. It also gave a TGI (MDA-MB-231 breast) greater than 100 µM, a TGI (MDA-MB-435) greater than 100 µM and a TGI (MDA-N) of 39.1 µM. For the same molecule, the TGI (MOLT-4 leukemia) was 68 µM, the TGI (NCI-H226 lung) was 57.8 µM and the TGI (NCI-H23 lung) was greater than 100 µM. For the same molecule, the TGI (NCI-H460 lung) was greater than 100 µM, the TGI (NCI-H522 lung) was greater than 100 µM and the TGI (NCI/ADR-RES ovarian) was greater than 100 µM. It also gave a TGI (OVCAR-3 ovarian) greater than 100 µM, a TGI (OVCAR-4 ovarian) of 70.6 µM and a TGI (OVCAR-5 ovarian) greater than 100 µM. It also gave a TGI (OVCAR-8 ovarian) greater than 100 µM, a TGI (PC-3 prostate) greater than 100 µM and a TGI (RPMI-8226 leukemia) greater than 100 µM. For the same molecule, the TGI (RXF 393 renal) was greater than 100 µM, the TGI (SF-268 CNS) was greater than 100 µM and the TGI (SF-295 CNS) was 88.9 µM. For the same molecule, the TGI (SF-539 CNS) was 69.4 µM, the TGI (SK-MEL-2 melanoma) was 67.5 µM and the TGI (SK-MEL-28 melanoma) was greater than 100 µM. For the same molecule, the TGI (SK-MEL-5 melanoma) was 57.7 µM, the TGI (SK-OV-3 ovarian) was greater than 100 µM and the TGI (SN12C renal) was 69.4 µM. The TGI (SNB-75 CNS) was greater than 100 µM, the TGI (SR leukemia) was greater than 100 µM and the TGI (SW-620 colon) was greater than 100 µM. For the same molecule, the TGI (T-47D breast) was greater than 100 µM, the TGI (TK-10 renal) was greater than 100 µM and the TGI (U251 CNS) was greater than 100 µM. It also gave a TGI (UACC-62 melanoma) greater than 100 µM and a TGI (UO-31 renal) greater than 100 µM.

With `CC1(C)C(=O)/C(=C/c2ccccc2)C(C)(C)C1(C)C` the TGI (786-0 renal) was greater than 100 µM, the TGI (A498 renal) was greater than 96.2 µM and the TGI (A549 NSCLC) was greater than 100 µM. For the same molecule, the TGI (ACHN renal) was greater than 100 µM, the TGI (BT-549 breast) was greater than 100 µM and the TGI (CAKI-1 renal) was greater than 100 µM. It also gave a TGI (CCRF-CEM leukemia) greater than 71.5 µM, a TGI (COLO 205 colon) greater than 100 µM and a TGI (DU-145 prostate) greater than 100 µM. It also gave a TGI (EKVX NSCLC) greater than 100 µM, a TGI (HCC-2998 colon) greater than 100 µM and a TGI (HCT-116 colon) greater than 100 µM. For the same molecule, the TGI (HCT-15 colon) was greater than 100 µM, the TGI (HL-60(TB) leukemia) was 46.7 µM and the TGI (HOP-62 NSCLC) was 98.9 µM. It also gave a TGI (HOP-92 NSCLC) greater than 100 µM, a TGI (HS 578T breast) greater than 100 µM and a TGI (HT29 colon) greater than 100 µM. For the same molecule, the TGI (IGROV1 ovarian) was greater than 100 µM, the TGI (K-562 leukemia) was greater than 100 µM and the TGI (KM12 colon) was greater than 100 µM. For the same molecule, the TGI (LOX IMVI melanoma) was greater than 100 µM, the TGI (M14 melanoma) was greater than 100 µM and the TGI (MALME-3M melanoma) was greater than 100 µM. It also gave a TGI (MCF7 breast) greater than 100 µM, a TGI (MDA-MB-231 breast) greater than 100 µM and a TGI (MDA-MB-435) greater than 86.6 µM. It also gave a TGI (MDA-N) greater than 100 µM, a TGI (MOLT-4 leukemia) greater than 100 µM and a TGI (NCI-H226 lung) greater than 100 µM. The TGI (NCI-H23 lung) was greater than 100 µM, the TGI (NCI-H460 lung) was greater than 100 µM and the TGI (NCI-H522 lung) was greater than 100 µM. The TGI (NCI/ADR-RES ovarian) was greater than 100 µM, the TGI (OVCAR-3 ovarian) was greater than 83.2 µM and the TGI (OVCAR-4 ovarian) was greater than 100 µM. For the same molecule, the TGI (OVCAR-5 ovarian) was greater than 100 µM, the TGI (OVCAR-8 ovarian) was greater than 100 µM and the TGI (PC-3 prostate) was greater than 100 µM. The TGI (RPMI-8226 leukemia) was greater than 100 µM, the TGI (RXF 393 renal) was greater than 100 µM and the TGI (SF-295 CNS) was greater than 100 µM. For the same molecule, the TGI (SF-539 CNS) was greater than 100 µM, the TGI (SK-MEL-2 melanoma) was greater than 100 µM and the TGI (SK-MEL-28 melanoma) was greater than 100 µM. For the same molecule, the TGI (SK-MEL-5 melanoma) was greater than 100 µM, the TGI (SK-OV-3 ovarian) was greater than 100 µM and the TGI (SN12C renal) was greater than 100 µM. It also gave a TGI (SNB-19 CNS) greater than 100 µM, a TGI (SNB-75 CNS) greater than 100 µM and a TGI (SR leukemia) greater than 74.2 µM. For the same molecule, the TGI (SW-620 colon) was greater than 100 µM, the TGI (T-47D breast) was greater than 100 µM and the TGI (TK-10 renal) was greater than 100 µM. The TGI (U251 CNS) was greater than 100 µM, the TGI (UACC-257 melanoma) was greater than 100 µM and the TGI (UACC-62 melanoma) was greater than 100 µM. The TGI (UO-31 renal) was greater than 100 µM.
